Laboratory results as given in patent US10577374B2, “Bruton's tyrosine kinase inhibitors” (priority 2009, dated 2020).
pIC50: −log10 of the molar value.

Target: BTK (Homo sapiens (Human), UniProt Q06187)
Test: In vitro BTK kinase assay: BTK-POLYGAT-LS ASSAY
Assay type: biochemical
Conditions: read-out: IC50 (10 uM ATP), polyGAT 100 nM, BTK 0.25 nM

BTK, sequence (Q06187 whole entry): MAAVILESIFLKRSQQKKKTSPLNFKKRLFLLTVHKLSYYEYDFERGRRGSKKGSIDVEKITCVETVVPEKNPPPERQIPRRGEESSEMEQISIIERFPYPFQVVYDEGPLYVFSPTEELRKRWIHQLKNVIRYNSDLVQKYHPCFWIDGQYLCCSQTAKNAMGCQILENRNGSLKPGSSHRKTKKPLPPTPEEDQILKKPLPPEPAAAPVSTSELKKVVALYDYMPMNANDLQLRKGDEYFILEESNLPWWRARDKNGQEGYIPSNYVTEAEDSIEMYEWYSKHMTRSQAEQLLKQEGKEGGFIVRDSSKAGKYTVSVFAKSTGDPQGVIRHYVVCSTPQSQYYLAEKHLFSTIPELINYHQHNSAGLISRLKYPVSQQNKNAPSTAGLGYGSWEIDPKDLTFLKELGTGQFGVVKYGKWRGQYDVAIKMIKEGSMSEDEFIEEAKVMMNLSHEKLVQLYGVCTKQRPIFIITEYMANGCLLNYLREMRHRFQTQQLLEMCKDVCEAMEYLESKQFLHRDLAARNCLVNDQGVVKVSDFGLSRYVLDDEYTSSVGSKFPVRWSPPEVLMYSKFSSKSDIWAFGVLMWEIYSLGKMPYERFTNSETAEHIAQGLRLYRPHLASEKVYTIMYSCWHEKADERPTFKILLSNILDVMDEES

- pIC50: < 5.00
Substance: 1-(3-(1-(methylsulfonyl)-4-(7H-pyrrolo[2,3-d]pyrimidin-4-yl)piperazin-2-yl)phenyl)-3-phenylurea [compound 128]
